{
  "source": "ChEMBL document CHEMBL6083198",
  "about": "“Rational design of a high-affinity fluorescent probe for visualizing monitoring the amyloid β clearance effect of anti-Alzheimer's disease drug candidates” (Eur J Med Chem, 2024)",
  "key": {"[1]": {"target": "T1, Amyloid-beta precursor protein (Homo sapiens, UniProt P05067)", "T1 sequence (P05067 whole entry)": "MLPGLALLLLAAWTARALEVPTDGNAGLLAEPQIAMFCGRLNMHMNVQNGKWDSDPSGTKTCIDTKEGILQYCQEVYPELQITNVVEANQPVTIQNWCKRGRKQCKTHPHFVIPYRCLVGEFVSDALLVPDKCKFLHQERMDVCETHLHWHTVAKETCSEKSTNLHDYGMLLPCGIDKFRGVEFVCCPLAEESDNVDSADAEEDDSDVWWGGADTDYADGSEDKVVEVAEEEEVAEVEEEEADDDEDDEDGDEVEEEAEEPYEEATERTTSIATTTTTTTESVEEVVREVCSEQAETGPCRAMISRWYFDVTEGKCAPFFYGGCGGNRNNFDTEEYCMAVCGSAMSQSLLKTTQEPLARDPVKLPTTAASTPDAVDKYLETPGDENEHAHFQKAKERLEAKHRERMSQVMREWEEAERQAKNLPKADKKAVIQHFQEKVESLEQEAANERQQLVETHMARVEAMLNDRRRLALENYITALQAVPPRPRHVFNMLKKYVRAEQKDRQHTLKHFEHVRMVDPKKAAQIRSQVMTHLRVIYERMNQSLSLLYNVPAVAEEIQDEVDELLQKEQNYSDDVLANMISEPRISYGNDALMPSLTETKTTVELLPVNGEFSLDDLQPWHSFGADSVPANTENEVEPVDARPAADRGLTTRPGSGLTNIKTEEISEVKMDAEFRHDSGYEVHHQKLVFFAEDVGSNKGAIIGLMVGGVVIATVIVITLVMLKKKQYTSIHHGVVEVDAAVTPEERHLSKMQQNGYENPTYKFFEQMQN", "experiment": "Binding affinity to amyloid beta plaques 1 to 42 (unknown origin) assessed as dissociation constant"}, "Homo sapiens [2]": {"species_on_record": "Homo sapiens", "experiment": "Binding affinity to amyloid beta monomer (unknown origin) assessed as dissociation constant"}, "SH-SY5Y [3]": {"test_system": "SH-SY5Y", "experiment": "Cytotoxicity against human SH-SY5Y cells at 100 uM incubated for 24 hrs", "type": "toxicity, cell-based"}, "[4]": {"target": "T1, Amyloid-beta precursor protein", "experiment": "Binding affinity to amyloid beta oligomers (unknown origin) at 5 uM by fluorescence analysis"}, "Trypsin (Homo sapiens)": {"target": "Trypsin (Homo sapiens) (UniProt P07477+P07478+P35030)", "experiment": "Binding affinity to trypsin (unknown origin) at 0.05 mg/ml by fluorescence analysis", "type": "protein assay"}, "Homo sapiens [5]": {"species_on_record": "Homo sapiens", "experiment": "Binding affinity to lysozyme (unknown origin) at 0.05 mg/ml by fluorescence analysis"}, "Mus musculus [6]": {"species_on_record": "Mus musculus", "experiment": "Binding affinity to amyloid beta plaques in 12 month old male APP/PS1mouse brain cerebral cortex by light-sheet microscopy", "type": "tissue-based", "conditions": "time 12.0 months"}, "Mus musculus [7]": {"species_on_record": "Mus musculus", "experiment": "Binding affinity to amyloid beta plaques in 12 month old male APP/PS1 transgenic mouse model assessed as signal to noise ratio in brain slice at 100 uM incubated for 30 min by confocal microscopic analysis", "type": "tissue-based", "conditions": "time 12.0 months"}, "[8]": {"experiment": "Fluorescence property of compound in DCM assessed as fluorescence quantum yield", "type": "physicochemical"}, "[9]": {"experiment": "Photostability of compound under continuous light irradiation", "type": "physicochemical"}, "[10]": {"experiment": "Binding affinity to amyloid beta oligomer (unknown origin) assessed as dissociation constant", "parameters": "species or system Homo sapiens"}, "Homo sapiens [11]": {"species_on_record": "Homo sapiens", "experiment": "(§1) Binding affinity to amyloid beta fibril (unknown origin) assessed as dissociation constant"}, "[12]": {"experiment": "as §1", "parameters": "species or system Homo sapiens"}, "Homo sapiens [13]": {"species_on_record": "Homo sapiens", "experiment": "Binding affinity to pepsin (unknown origin) at 0.05 mg/ml by fluorescence analysis"}, "Homo sapiens [14]": {"species_on_record": "Homo sapiens", "experiment": "Binding affinity to phosphoesterase (unknown origin) at 0.05 mg/ml by fluorescence analysis"}, "Mus musculus [15]": {"species_on_record": "Mus musculus", "experiment": "Binding affinity to amyloid beta plaques in 12 month old male APP/PS1 transgenic mouse model assessed as colocalization of amyloid beta plaques in brain at 100 uM incubated for 30 min by ab205240 staining based immunohistofluorescence assay", "type": "tissue-based", "conditions": "time 12.0 months"}, "[16]": {"experiment": "Binding affinity to cellulase (unknown origin) at 0.05 mg/ml by fluorescence analysis"}, "[17]": {"experiment": "Stability of compound at pH 2 to 10 in presence of Amyloid beta", "type": "physicochemical", "conditions": "buffer"}, "Albumin": {"target": "Albumin (Bos taurus, UniProt P02769)", "sequence (P02769 whole entry)": "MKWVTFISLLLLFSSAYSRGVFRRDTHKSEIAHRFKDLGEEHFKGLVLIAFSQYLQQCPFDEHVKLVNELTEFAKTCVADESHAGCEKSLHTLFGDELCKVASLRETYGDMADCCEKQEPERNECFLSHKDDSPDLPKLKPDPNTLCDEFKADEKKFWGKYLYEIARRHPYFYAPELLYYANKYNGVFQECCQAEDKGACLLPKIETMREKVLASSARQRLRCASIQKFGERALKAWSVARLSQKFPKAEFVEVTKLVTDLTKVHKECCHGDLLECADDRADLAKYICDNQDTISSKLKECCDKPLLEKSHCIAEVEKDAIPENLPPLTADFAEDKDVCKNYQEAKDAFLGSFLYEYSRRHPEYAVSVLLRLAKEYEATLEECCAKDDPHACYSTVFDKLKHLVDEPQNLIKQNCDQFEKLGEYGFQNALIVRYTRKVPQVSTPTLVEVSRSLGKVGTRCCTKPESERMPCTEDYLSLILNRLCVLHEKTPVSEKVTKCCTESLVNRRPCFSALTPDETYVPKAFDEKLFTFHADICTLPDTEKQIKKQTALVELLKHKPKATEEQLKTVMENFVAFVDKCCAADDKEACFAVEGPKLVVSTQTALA", "experiment": "Binding affinity to bovine serum albumin (unknown origin) at 0.05 mg/ml by fluorescence analysis", "conditions": "cattle"}, "Homo sapiens [18]": {"species_on_record": "Homo sapiens", "experiment": "Binding affinity to amyloid beta fibril (unknown origin) at 0.025 mg/ml by fluorescence analysis"}, "U-87 MG": {"test_system": "U-87 MG", "experiment": "Cytotoxicity against human U-87 MG cells at 100 uM incubated for 24 hrs", "type": "toxicity, cell-based", "conditions": "u-87mg atcc"}, "Caenorhabditis elegans [19]": {"test_system": "Caenorhabditis elegans", "experiment": "Anti-alzheimer activity against heat-induced Caenorhabditis elegans CL4176 AD paralysis model assessed as reduction in amyloid-beta deposition measured after 5 days by ThS staining based fluorescence assay", "type": "functional, organism-based", "conditions": "dose 100-200 µM, time 5.0 day"}, "[20]": {"target": "T1, Amyloid-beta precursor protein", "experiment": "Binding affinity to amyloid beta (unknown origin) assessed as dissociation constant"}, "[21]": {"target": "T1, Amyloid-beta precursor protein", "experiment": "Inhibition of amyloid beta aggregation in amyloid beta-induced human SH-SY5Y cells assessed as reduction in fluorescence intensity at 2 to 20 uM incubated for 24 hrs by Western blot analysis", "type": "cell-based", "conditions": "dose 2-20 µM"}, "SH-SY5Y [22]": {"test_system": "SH-SY5Y", "experiment": "Neuroprotective activity against amyloid beta-induced toxicity in human SH-SY5Y cells assessed as reduction in fluorescence intensity at 2 uM incubated for 24 hrs by immunofluorescence staining based analysis", "type": "functional, cell-based"}, "Caenorhabditis elegans [23]": {"test_system": "Caenorhabditis elegans", "experiment": "Anti-alzheimer activity against heat-induced Caenorhabditis elegans CL4176 AD paralysis model assessed as reduction in amyloid-beta deposition at 100 to 200 uM", "type": "functional, organism-based", "conditions": "dose 100-200 µM, time 5.0 day"}, "Caenorhabditis elegans [24]": {"test_system": "Caenorhabditis elegans", "experiment": "Anti-alzheimer activity against heat-induced Caenorhabditis elegans CL2006 AD paralysis model assessed as reduction in amyloid-beta deposition at 200 uM measured after 5 days by ThS staining based fluorescence assay", "type": "functional, organism-based", "conditions": "time 5.0 day"}, "SH-SY5Y [25]": {"test_system": "SH-SY5Y", "experiment": "Neuroprotective activity against amyloid beta-induced toxicity in human SH-SY5Y cells assessed as reduction in fluorescence intensity at 10 uM incubated for 24 hrs by immunofluorescence staining based analysis", "type": "functional, cell-based"}, "[26]": {"experiment": "Fluorescence property of compound in aqueous solution assessed as fluorescence quantum yield", "type": "physicochemical", "conditions": "buffer"}},
  "note": "Active and inactive are the calls of the source. The calls are words filed in the database; no cut-off is given here.",
  "data": [
    {"smiles": "Cc1cc(/C=C/c2ccc(N(C)C)s2)n2c1C(CCCN1CCNc3ccccc31)=C1C=CC=[N+]1[B-]2(F)F", "values": [
      {"measurement": "Kd", "setting": "[1]", "value": 27, "unit": "nM"}
    ]},
    {"smiles": "CN(C)c1ccc(/C=C/c2ccc3cc(C#N)c(=O)oc3c2)cc1", "values": [
      {"measurement": "Activity", "setting": "Homo sapiens [2]", "value": "inactive"},
      {"measurement": "Activity", "setting": "SH-SY5Y [3]", "value": "Non-toxic"},
      {"measurement": "Activity", "setting": "[4]", "value": "Active"},
      {"measurement": "Activity", "setting": "Trypsin (Homo sapiens)", "value": "inactive"},
      {"measurement": "Activity", "setting": "Homo sapiens [5]", "value": "inactive"},
      {"measurement": "Activity", "setting": "Mus musculus [6]", "value": "Active"},
      {"measurement": "Activity", "setting": "Mus musculus [7]", "value": "Active"},
      {"measurement": "Activity", "setting": "[8]", "value": 0.3},
      {"measurement": "Stability", "setting": "[9]", "value": "Stable"},
      {"measurement": "Kd", "setting": "[10]", "value": 81.5, "unit": "nM"},
      {"measurement": "Activity", "setting": "Homo sapiens [11]", "value": "Active"},
      {"measurement": "Kd", "setting": "[12]", "value": 66.7, "unit": "nM"},
      {"measurement": "Activity", "setting": "Homo sapiens [13]", "value": "inactive"},
      {"measurement": "Activity", "setting": "Homo sapiens [14]", "value": "inactive"},
      {"measurement": "Activity", "setting": "Mus musculus [15]", "value": "Active"},
      {"measurement": "Activity", "setting": "[16]", "value": "inactive"},
      {"measurement": "Stability", "setting": "[17]", "value": "Stable"},
      {"measurement": "Activity", "setting": "Albumin", "value": "Not_active"},
      {"measurement": "Activity", "setting": "Homo sapiens [18]", "value": "Active"},
      {"measurement": "Activity", "setting": "U-87 MG", "value": "Non-toxic"}
    ]},
    {"smiles": "O=c1c(O)c(-c2ccc(O)c(O)c2)oc2cc(O)cc(O)c12", "values": [
      {"measurement": "Activity", "setting": "Caenorhabditis elegans [19]", "value": "Dose-dependent-effect"}
    ]},
    {"smiles": "CN(C)c1ccc(/C=C/C=C(C#N)/C=C/C(C#N)=C/C=C/C=C/c2ccc(N(C)C)cc2)cc1", "values": [
      {"measurement": "Kd", "setting": "[1]", "value": 1.04, "unit": "nM"}
    ]},
    {"smiles": "CN(C)c1ccc2cc(/C=C/c3ccc4ccccc4[n+]3C)c(=O)oc2c1", "values": [
      {"measurement": "Kd", "setting": "[20]", "value": 86, "unit": "nM"}
    ]},
    {"smiles": "CCN(CC)c1ccc(/C=C/C2=[O+][B-](F)(F)OC(/C=C/c3ccc(N(CC)CC)nc3)=C2CCCOc2c(C)cccc2C)cc1", "values": [
      {"measurement": "Kd", "setting": "[1]", "value": 506, "unit": "nM"}
    ]},
    {"smiles": "CCCN1/C(=C/C=C2\\CCCC(C=C(C#N)C#N)=C2Cl)C(C)(C)c2ccccc21", "values": [
      {"measurement": "Kd", "setting": "[1]", "value": 59.1, "unit": "nM"}
    ]},
    {"smiles": "CN(C)c1ccc(-c2ccc(/C=C/C3CC(=C(C#N)C#N)c4ccccc4N3CCCS(=O)(=O)O)s2)cc1", "note": "(configuration not stated)", "values": [
      {"measurement": "Kd", "setting": "[20]", "value": 170, "unit": "nM"}
    ]},
    {"smiles": "CN(C)c1ccc2cc3c(cc2c1)OCC(C=C(C#N)C#N)=C3", "values": [
      {"measurement": "Kd", "setting": "[20]", "value": 44.8, "unit": "nM"}
    ]},
    {"smiles": "CC(=O)Oc1cccc(C(=O)Nc2ncc(N3CCOCC3)s2)c1", "values": [
      {"measurement": "Activity", "setting": "[21]", "value": "Active"},
      {"measurement": "Activity", "setting": "SH-SY5Y [22]", "value": "Active"},
      {"measurement": "Activity", "setting": "Caenorhabditis elegans [23]", "value": "Active"},
      {"measurement": "Activity", "setting": "Caenorhabditis elegans [19]", "value": "Dose-dependent-effect"},
      {"measurement": "Activity", "setting": "Caenorhabditis elegans [24]", "value": "inactive"}
    ]},
    {"smiles": "CN(C)c1ccc(/C=C/C=C/C=C(C#N)C#N)s1", "values": [
      {"measurement": "Kd", "setting": "[20]", "value": 117, "unit": "nM"}
    ]},
    {"smiles": "COCCOCCn1c2ccccc2c2cc(CCc3cc[n+](C)c4ccccc34)ccc21", "values": [
      {"measurement": "Kd", "setting": "[20]", "value": 13.1, "unit": "nM"}
    ]},
    {"smiles": "COCCOCCOC(=O)CCN1C(=O)/C(=C/c2ccc3c(c2)Sc2ccccc2N3C)SC1=S", "values": [
      {"measurement": "Kd", "setting": "[20]", "value": 28.2, "unit": "nM"}
    ]},
    {"smiles": "CC(=O)Oc1ccccc1C(=O)Nc1ncc([N+](=O)[O-])s1", "values": [
      {"measurement": "Activity", "setting": "[21]", "value": "Active"},
      {"measurement": "Activity", "setting": "Caenorhabditis elegans [23]", "value": "Active"},
      {"measurement": "Activity", "setting": "Caenorhabditis elegans [19]", "value": "Dose-dependent-effect"},
      {"measurement": "Activity", "setting": "SH-SY5Y [25]", "value": "Active"}
    ]},
    {"smiles": "CN(C)c1ccc(-c2ccc3cc(C#N)c(=N)oc3c2)cc1", "values": [
      {"measurement": "Activity", "setting": "[26]", "value": 0.027},
      {"measurement": "Kd", "setting": "[20]", "value": 548, "unit": "nM"}
    ]}
  ]
}
